How the values were obtained:
[1] = target: E. coli PNP mutant M65V (Escherichia coli, UniProt P0ABP8, M65V); conditions: for M65V, crude extract, rate of cleavage / M65V, pure enzyme, rate of cleavage: Table III, 100 μM substrate, HPLC, average of separate experiments; for activity of mutant M65V PNP compared with wild-type PNP (in words): Example 16 analysis
[2] = target: wild-type E. coli PNP (Escherichia coli, UniProt P0ABP8); conditions: Table III; 100 μM substrate; HPLC; average of separate experiments
[3] = E. coli PNP enzyme activity with substrate MeP-dR; conditions: for Percent of Control Activity, MeP-dR: substrate MeP-dR, percent of wild-type activity; for activity toward substrates MeP-dR and F-araA (in words): Table I
[4] = E. coli PNP enzyme activity with substrate F-araA; conditions: percent of wild-type activity

| Molecule | M65V, crude extract, rate of cleavage [1] | Wild type, pure enzyme, rate of cleavage [2] | also measured |
| --- | --- | --- | --- |
| Nc1nc2c(ncn2[C@@H]2C[C@H](CO)[C@@H](CO)O2)c(=S)[nH]1 [9-(2,3-dideoxy-3-hydroxymethyl-α-D-ribofuranosyl)-6-thioguanine] | — (No detectable activity at 100 μg/ml (limit of detection approximately 1 nmole/mg/hr)) | 242 nmol/mg/h | – |
| Cc1ncnc2c1ncn2[C@@H]1C[C@H](O)[C@@H](CO)O1 [9-(2-deoxy-α-D-ribofuranosyl)-6-methylpurine] | — (No detectable activity at 100 μg/ml (limit of detection approximately 1 nmole/mg/hr)) | — (No detectable activity at 100 μg/ml (limit of detection approximately 1 nmole/mg/hr)) | – |
| Nc1nc(Cl)nc2c1ncn2[C@H]1C[C@@H](O)[C@H](CO)O1 [9-(2-deoxy-α-L-ribofuranosyl)-2-chloroadenine] | — (No detectable activity at 100 μg/ml (limit of detection approximately 1 nmole/mg/hr)) | — (No detectable activity at 100 μg/ml (limit of detection approximately 1 nmole/mg/hr)) | – |
| Nc1nc(Cl)nc2c1ncn2[C@@H]1C[C@@H](O)[C@H](CO)O1 [9-(2-deoxy-β-L-ribofuranosyl)-2-chloroadenine] | — (No detectable activity at 100 μg/ml (limit of detection approximately 1 nmole/mg/hr)) | — (No detectable activity at 100 μg/ml (limit of detection approximately 1 nmole/mg/hr)) | – |
| Cc1ncnc2c1ncn2[C@@H]1O[C@H](C(C)(C)O)[C@@H](O)[C@H]1O [9-(5,5-di-C-methyl-β-D-ribofuranosyl)-6-methylpurine] | – | — (No detectable activity at 100 μg/ml (limit of detection approximately 1 nmole/mg/hr)) | M65V, pure enzyme, rate of cleavage [1]: 230 nmol/mg/h |
| Nc1nc(F)nc2c1ncn2[C@@H]1O[C@H](CI)[C@@H](O)[C@H]1O [9-(5-deoxy-5-iodo-β-D-ribofuranosyl)-2-fluoroadenine] | – | 13 nmol/mg/h | M65V, pure enzyme, rate of cleavage [1]: 490 nmol/mg/h |
| CSC[C@H]1O[C@@H](n2cnc3c(N)nc(F)nc32)[C@H](O)[C@@H]1O [9-(5-deoxy-5-methylthio-β-D-ribofuranosyl)-2-fluoroadenine] | – | 13 nmol/mg/h | M65V, pure enzyme, rate of cleavage [1]: 2500 nmol/mg/h |
| Cc1ncnc2c1ncn2[C@@H]1O[C@H](CSc2ccccc2)[C@@H](O)[C@H]1O [9-(5-deoxy-5-phenylthio-β-D-ribofuranosyl)-6-methylpurine] | — (No detectable activity at 100 μg/ml (limit of detection approximately 1 nmole/mg/hr)) | — (No detectable activity at 100 μg/ml (limit of detection approximately 1 nmole/mg/hr)) | – |
| C#C[C@@H](O)[C@H]1O[C@@H](n2cnc3c(C)ncnc32)[C@H](O)[C@@H]1O [9-(6,7-dideoxy-α-L-talo/β-D-allo-hept-6-ynofuranosyl)-6-methylpurine] | 119 nmol/mg/h | — (No detectable activity at 100 μg/ml (limit of detection approximately 1 nmole/mg/hr)) | – |
| Nc1ncnc2c1ncn2[C@H]1O[C@H](CO)[C@@H](O)[C@@H]1O [9-(α-D-arabinofuranosyl)-adenine] | — (No detectable activity at 100 μg/ml (limit of detection approximately 1 nmole/mg/hr)) | — (No detectable activity at 100 μg/ml (limit of detection approximately 1 nmole/mg/hr)) | – |
| Nc1nc(F)nc2c1ncn2[C@@H]1O[C@@H](CO)[C@@H](O)[C@H]1O [9-(α-L-lyxofuranosyl)-2-fluoroadenine, 2-Fluoro-9-(α-L-lyxofuranosyl)-9H-purin-6-amine] | 222,000 nmole/mg/hr | 7,800 nmole/mg/hr | – |
| Cc1ncnc2c1ncn2[C@@H]1O[C@@H](CO)[C@@H](O)[C@H]1O [9-(α-L-lyxofuranosyl)-6-methylpurine, 6-Methyl-9-α-L-lyxofuranosylpurine] | – | 218 nmol/mg/h | activity of mutant M65V PNP compared with wild-type PNP (in words) [1]: more activity; M65V, pure enzyme, rate of cleavage [1]: 9,600 nmole/mg/hr |
| Nc1ncnc2c1ncn2[C@@H]1O[C@@H](CO)[C@@H](O)[C@H]1O [9-(α-L-lyxofuranosyl)-adenine] | 54,000 nmole/mg/hr | 3,690 nmole/mg/hr | activity of mutant M65V PNP compared with wild-type PNP (in words) [1]: more activity; Activity of M65V mutant greater than wild-type PNP ([1]; M65V versus wild-type PNP): 6 fold |
| Nc1ncnc2c1ncn2[C@@H]1O[C@H](CO)[C@@H](O)[C@@H](O)[C@H]1O [9-(β-D-allopyranosyl)-adenine] | — (No detectable activity at 100 μg/ml (limit of detection approximately 1 nmole/mg/hr)) | — (No detectable activity at 100 μg/ml (limit of detection approximately 1 nmole/mg/hr)) | – |
| Cc1ncnc2c1ncn2[C@@H]1O[C@H](CO)[C@@H](O)[C@@H]1O [9-(β-D-arabinofuranosyl)-6-methylpurine] | 3 nmol/mg/h | 14 nmol/mg/h | – |
| Nc1ncnc2c1ncn2[C@]1(CO)OC[C@@H](O)[C@@H](O)[C@@H]1O [9-(β-D-fructopyranosyl)-adenine] | — (No detectable activity at 100 μg/ml (limit of detection approximately 1 nmole/mg/hr)) | — (No detectable activity at 100 μg/ml (limit of detection approximately 1 nmole/mg/hr)) | – |
| Nc1ncnc2c1ncn2[C@@H]1O[C@H](CO)[C@H](O)[C@@H]1O [9-(β-D-lyxofuranosyl)-adenine] | — (No detectable activity at 100 μg/ml (limit of detection approximately 1 nmole/mg/hr)) | — (No detectable activity at 100 μg/ml (limit of detection approximately 1 nmole/mg/hr)) | – |
| OC[C@H]1O[C@@H](n2cnc3c(CF)ncnc32)[C@H](O)[C@@H]1O [9-(β-D-ribofuranosyl)-6-fluoromethylpurine] | – | 56,000 nmole/mg/hr | M65V, pure enzyme, rate of cleavage [1]: 211,000 nmole/mg/hr |
| Cc1ncnc2c1ncn2[C@@H]1O[C@H](CO)[C@@H](O)[C@H]1O [9-(β-D-ribofuranosyl)-6-methylpurine, 6-Methyl-9-(β-D-ribofuranosyl)purine] | – | 100,000 nmole/mg/hr | M65V, pure enzyme, rate of cleavage [1]: 140,000 nmole/mg/hr |
| Nc1ncnc2c1ncn2[C@@H]1OC[C@@H](O)[C@@H](O)[C@H]1O [9-(β-D-ribopyranosyl)-adenine] | — (No detectable activity at 100 μg/ml (limit of detection approximately 1 nmole/mg/hr)) | — (No detectable activity at 100 μg/ml (limit of detection approximately 1 nmole/mg/hr)) | – |
| Cc1ncnc2c1ncn2[C@@H]1O[C@H](CO)[C@H](O)[C@H]1O [9-(β-D-xylofuranosyl)-6-methylpurine] | — (No detectable activity at 100 μg/ml (limit of detection approximately 1 nmole/mg/hr)) | — (No detectable activity at 100 μg/ml (limit of detection approximately 1 nmole/mg/hr)) | – |
| A157L (protein, UniProt P0ABP8 2-239, looked up, variant A157L) Purine nucleoside …: ATPHINAEMGDFADVVLMPGDPLRAKYIAETFLEDAREVNNVRGMLGFTGTYKGRKISVMGHGMGIPSCSIYTKELITDFGVKKIIRVGSCGAVLPHVKLRDVVIGMGACTDSKVNRIRFKDHDFAAIADFDMVRNAVDAAKALGIDARVGNLFSLDLFYSPDGEMFDVMEKYGILGVEMEAAGIYGVAAEFGAKALTICTVSDHIRTHEQTTAAERQTTFNDMIKIALESVLLGDKE | – | – | Percent of Control Activity, MeP-dR [3]: 12%; activity toward substrates MeP-dR and F-araA (in words) [3]: retained some appreciable level of activity; Percent of Control Activity, F-araA [4]: 21% |
| A157V (protein, listed as Escherichia coli) MATPHINAEMGDFADVVLMPGDPLRAKYIAETFLEDAREVNNVRGMLGFTGTYKGRKISVMGHGMGIPSCSIYTKELITDFGVKKIIRVGSCGAVLPHVKLRDVVIGMGACTDSKVNRIRFKDHDFAAIADFDMVRNAVDAAKALGIDARVGNLFSVDLFYSPDGEMFDVMEKYGILGVEMEAAGIYGVAAEFGAKALTICTVSDHIRTHEQTTAAERQTTFNDMIKIALESVLLGDKE | – | – | activity toward substrates MeP-dR and F-araA (in words) [3]: retained some appreciable level of activity |
| E180D (protein, UniProt P0ABP8 2-239, looked up, variant E180D) Purine nucleoside …: ATPHINAEMGDFADVVLMPGDPLRAKYIAETFLEDAREVNNVRGMLGFTGTYKGRKISVMGHGMGIPSCSIYTKELITDFGVKKIIRVGSCGAVLPHVKLRDVVIGMGACTDSKVNRIRFKDHDFAAIADFDMVRNAVDAAKALGIDARVGNLFSADLFYSPDGEMFDVMEKYGILGVDMEAAGIYGVAAEFGAKALTICTVSDHIRTHEQTTAAERQTTFNDMIKIALESVLLGDKE | – | – | Percent of Control Activity, MeP-dR [3]: 81%; activity toward substrates MeP-dR and F-araA (in words) [3]: retained some appreciable level of activity; Percent of Control Activity, F-araA [4]: 60% |
| A157F (protein, UniProt P0ABP8 2-239, looked up, variant A157F) Purine nucleoside …: ATPHINAEMGDFADVVLMPGDPLRAKYIAETFLEDAREVNNVRGMLGFTGTYKGRKISVMGHGMGIPSCSIYTKELITDFGVKKIIRVGSCGAVLPHVKLRDVVIGMGACTDSKVNRIRFKDHDFAAIADFDMVRNAVDAAKALGIDARVGNLFSFDLFYSPDGEMFDVMEKYGILGVEMEAAGIYGVAAEFGAKALTICTVSDHIRTHEQTTAAERQTTFNDMIKIALESVLLGDKE | – | – | Percent of Control Activity, MeP-dR [3]: 1.5%; Percent of Control Activity, F-araA [4]: 1.4% |
| E180N (protein, UniProt P0ABP8 2-239, looked up, variant E180N) Purine nucleoside …: ATPHINAEMGDFADVVLMPGDPLRAKYIAETFLEDAREVNNVRGMLGFTGTYKGRKISVMGHGMGIPSCSIYTKELITDFGVKKIIRVGSCGAVLPHVKLRDVVIGMGACTDSKVNRIRFKDHDFAAIADFDMVRNAVDAAKALGIDARVGNLFSADLFYSPDGEMFDVMEKYGILGVNMEAAGIYGVAAEFGAKALTICTVSDHIRTHEQTTAAERQTTFNDMIKIALESVLLGDKE | – | – | Percent of Control Activity, MeP-dR [3]: 0.2%; Percent of Control Activity, F-araA [4]: 0.3% |

Reference: patent US7488598B2, “Mutant purine nucleoside phosphorylase proteins and cellular delivery thereof” (priority 2001, dated 2009)
